Experimental data taken from US20110200557A1, “NEW 2-AMIDOTHIADIAZOLE DERIVATIVES” (priority 2008, published 2011).

The compounds below were run against S1P1 receptors (Homo sapiens, UniProt P21453) (assay: 35S-GTPyS binding assay). Conditions: membranes; compound 0.1 nM-10 μM; 0.1 nM 35S-GTPyS; 10 μM S1P as 100% maximum efficacy; 90 min at room temperature.
Chain of S1P1 receptors (P21453 whole entry): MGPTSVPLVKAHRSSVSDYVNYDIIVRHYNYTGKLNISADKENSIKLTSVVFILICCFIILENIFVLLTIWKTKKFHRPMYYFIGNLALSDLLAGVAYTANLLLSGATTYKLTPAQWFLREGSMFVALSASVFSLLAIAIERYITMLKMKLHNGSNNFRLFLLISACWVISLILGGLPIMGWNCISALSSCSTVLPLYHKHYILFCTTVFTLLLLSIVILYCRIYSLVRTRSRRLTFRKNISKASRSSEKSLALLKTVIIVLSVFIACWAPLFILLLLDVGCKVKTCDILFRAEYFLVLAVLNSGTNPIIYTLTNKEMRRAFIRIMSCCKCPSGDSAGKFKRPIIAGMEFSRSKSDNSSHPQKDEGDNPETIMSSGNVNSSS
Assay type: biochemical
Protocol: The effect of the compounds was measured using a 35S-GTPyS binding assay. Briefly, membranes were incubated in a buffer containing 20 mM HEPES pH 7.4, 100 mM NaCl, 10 mM MgCl2, 10 μM GDP, 50 μg/ml saponin and 0.2% fatty acid-free BSA at various concentrations (0.1 nM-10 μM) and 0.1 nM 35S-GTPyS. 10 μM S1P was used as 100% maximum efficacy. The assay was incubated for 90 min at room temperature with gentle mixing, and terminated by filtrating the reaction mixture through GF/C filter plates using the Manifold Filtration System. The filters were immediately washed with sodium phosphate pH 7.4 buffers. After drying the filter plate's scintillant liquid were added to each well and 35S-GTPyS binding was measured on a Trilux Scintillation Counter.
`CCCCN(C(=O)c1ccccc1Cl)c1nnc(-c2ccc(CN3CCC(C(=O)O)CC3)cc2C)s1` [Example 118, 1-(4-{5-[Butyl(2-chlorobenzoyl)amino]-1,3,4-thiadiazol-2-yl}-3-methylbenzyl)-piperidine-4-carboxylic acid] was tested, and the EC50 was 4.42 nM.
With `COc1c(C)cc(-c2nnc(N(CC3CC3)C(=O)c3ccccc3F)s2)cc1C` [Example 46, N-(cyclopropylmethyl)-2-fluoro-N-[5-(4-methoxy-3,5-dimethylphenyl)-1,3,4-thiadiazol-2-yl]benzamide] the EC50 was 36 nM.
With `CCCCN(C(=O)c1ccccc1F)c1nnc(-c2cc(C)c(OCCN)c(C)c2)s1` [Example 105, N-{5-[4-(2-Aminoethoxy)-3,5-dimethylphenyl]-1,3,4-thiadiazol-2-yl}-N-butyl-2-fluorobenzamide] the EC50 was 0.45 nM.
In the case of `CCCCN(C(=O)c1ccccc1Cl)c1nnc(-c2cc(Cl)nc(OC)c2)s1` [Example 31, N-Butyl-2-chloro-N-[5-(2-chloro-6-methoxypyridin-4-yl)-1,3,4-thiadiazol-2-yl]benzamide], the EC50 is reported as 3.4 nM.
`CCCCN(C(=O)c1ccccc1Cl)c1nnc(-c2ccc(C(N)=O)cc2)s1` [Example 53, N-butyl-N-(5-(4-carbamoylphenyl)-1,3,4-thiadiazol-2-yl)-2-chlorobenzamide] showed an EC50 of 46.3 nM.
`CCCCN(C(=O)c1ccccc1F)c1nnc(-c2cc(C)c(OC)c(C)c2)s1` [Example 9, N-butyl-2-fluoro-N-[5-(4-methoxy-3,5-dimethylphenyl)-1,3,4-thiadiazol-2-yl]benzamide] showed an EC50 of 4.4 nM.
`CCCCN(C(=O)c1ccccc1F)c1nnc(-c2ccc(CN3CCC(C(=O)O)C3)cc2C)s1` (stereo not drawn) [Example 97, 1-(4-{5-[Butyl(2-fluorobenzoyl)amino]-1,3,4-thiadiazol-2-yl}-3-methylbenzyl)-pyrrolidine-3-carboxylic acid] gave an EC50 of 2 nM.
`CCCCN(C(=O)c1ccccc1OC)c1nnc(-c2cc(C)c(OC)c(C)c2)s1` [Example 19, N-butyl-2-methoxy-N-[5-(4-methoxy-3,5-dimethylphenyl)-1,3,4-thiadiazol-2-yl]benzamide] gave an EC50 of 8.3 nM.
Work on `CCCCN(C(=O)c1ccccc1Cl)c1nnc(-c2cc(C)c(O)c(C)c2)s1` [Example 8, N-butyl-2-chloro-N-[5-(4-hydroxy-3,5-dimethylphenyl)-1,3,4-thiadiazol-2-yl]benzamide] yielded an EC50 of 6.2 nM.
With `CCCCN(C(=O)c1ccccc1Cl)c1nnc(-c2cc(C)nc(Cl)c2)s1` [Example 39, N-Butyl-2-chloro-N-[5-(2-chloro-6-methylpyridin-4-yl)-1,3,4-thiadiazol-2-yl]benzamide] the EC50 was 3.8 nM.
Work on `CCCCN(C(=O)c1ccccc1F)c1nnc(-c2cc(C)c(OCC(O)CN)c(C)c2)s1` (stereo not drawn) [Example 113, N-{5-[4-(3-Amino-2-hydroxypropoxy)-3,5-dimethylphenyl]-1,3,4-thiadiazol-2-yl}-N-butyl-2-fluorobenzamide] yielded an EC50 of 1.52 nM.
`CCCCN(C(=O)c1ccccc1F)c1nnc(-c2ccc(OC)nc2)s1` [Example 48, N-butyl-2-fluoro-N-(5-(6-methoxypyridin-3-yl)-1,3,4-thiadiazol-2-yl)benzamide] gave an EC50 of 116 nM.
`CCCCN(C(=O)c1ccccc1Cl)c1nnc(-c2cc(C)c(OCCOC)c(C)c2)s1` [Example 32, N-butyl-2-chloro-N-{5-[4-(2-methoxyethoxy)-3,5-dimethylphenyl]-1,3,4-thiadiazol-2-yl}benzamide] was tested, and the EC50 was 64.2 nM.
Compound `CCCCN(C(=O)c1cccc(Cl)c1F)c1nnc(-c2cc(C)c(OCC(O)CO)c(C)c2)s1` (stereo not drawn) [Example 111, N-Butyl-3-chloro-N-{5-[4-(2,3-dihydroxypropoxy)-3,5-dimethylphenyl]-1,3,4-thiadiazol-2-yl}-2-fluorobenzamide] has an EC50 of 0.15 nM.
`CCN(C(=O)c1cccc(Cl)c1F)c1nnc(-c2ccc(CN3CC(C(=O)O)C3)cc2)s1` [Example 108, 1-(4-{5-[(3-Chloro-2-fluorobenzoyl)(ethyl)amino]-1,3,4-thiadiazol-2-yl}benzyl)-azetidine-3-carboxylic acid] gave an EC50 of 7 nM.
`CCCCN(C(=O)Cc1ccccc1F)c1nnc(-c2ccc(CN3CC(C(=O)O)C3)cc2)s1` [Example 87, 1-[4-(5-{Butyl[(2-fluorophenyl)acetyl]amino}-1,3,4-thiadiazol-2-yl)benzyl]azetidine-3-carboxylic acid] was tested, and the EC50 was 1.4 nM.
In the case of `CCCCN(C(=O)c1ccccc1F)c1nnc(-c2ccc(C(=O)NCCC(=O)O)cc2)s1` [Example 69, N-(4-{5-[Butyl(2-fluorobenzoyl)amino]-1,3,4-thiadiazol-2-yl}benzoyl)-beta-alanine], the EC50 is reported as 55 nM.
With `CCCCN(C(=O)c1ccccc1F)c1nnc(-c2ccc3nccn3c2)s1` [Example 49, N-butyl-2-fluoro-N-(5-(imidazo[1,2-a]pyridin-6-yl)-1,3,4-thiadiazol-2-yl)benzamide] the EC50 was 88.7 nM.
